In article PMC7277748 (Biomedicines, 2020):
Like-named read-outs stand apart in the source and are kept apart here.

Key:
[1] = target: T1, AChE-induced Aβ1–42 aggregation (Electrophorus electricus, UniProt O42275); experiment: Inhibition of AChE-induced Aβ1–42 aggregation (thioflavin T assay); type: biochemical; details: for inhibitory effect on AChE-induced Aβ1–42 aggregation (in words): ThT-based fluorescence assay
T1 construct: purchased
Experimental: Inhibition of AChE-induced Aβ1–42 aggregation was modified and measured using a thioflavin T (ThT) binding assay, as described elsewhere. Briefly, Aβ1–42 was dissolved in 50 mM phosphate buffer (pH 8.0). […] The fluorescence intensities were recorded, and the percentage of inhibition on aggregation was calculated by using the following equation: (1 – IFi/IFc) * 100%, in which IFi and IFc were the fluorescence of the AChE-induced Aβ1–42 aggregation group in the presence and absence of the test compounds, respectively, after subtracting the fluorescence of self Aβ1–42 aggregation and the background fluorescence of 5 μM ThT in the blank buffers. […] All determinations were carried out at least three times and in triplicate wells. […]

[2] = target: T2, AChE from Electrophorus electricus (type VI-S) (Electrophorus electricus, UniProt O42275); experiment: biochemical
T2 construct: purchased
Experimental: Acetylcholinesterase inhibitory activity was determined and modified from Ellman, as described elsewhere. […] The enzyme activity and the percentage inhibition were determined. […] All determinations were carried out at least three times and in triplicate wells.

Aβ1–42 = Aβ1–42 (Homo sapiens, UniProt P05067); experiment: Inhibition of self-induced Aβ1–42 aggregation (thioflavin T assay); type: biochemical; details: ThT fluorescence, Aβ1–42, 48 h at 37 °C, mean ± SD; read-out: Self-Induced Aβ IC50
Experimental: Inhibition of self-induced Aβ1–42 aggregation was assayed, as described elsewhere. […] After incubation, the samples were mixed with […] glycine/NaOH buffer (pH 8.5) containing 5 μM ThT. […] The fluorescence intensities were recorded, and the percentage of inhibition on aggregation was calculated by using the following equation: (1 − IFi/IFc) * 100% in which IFi and IFc were the fluorescence intensities obtained for Aβ1-42 aggregation group in the presence and absence of the test compounds, respectively, after subtracting the background fluorescence of 5 μM ThT in the blank buffers. […] The experiment was done in independent triplicates. […]

SH-SY5Y cells [3] = experiment: Cytotoxicity in SH-SY5Y cells (MTT); type: cell-based; details: 0.1 to 10 µM for 24 h
Experimental: (§1) Human neuroblastoma cells (SH-SY5Y) were cultured in Dulbecco’s Modified Eagle Medium (DMEM/Ha’s F12) containing 50 IU/mL penicillin, […] streptomycin, 2 mM L-glutamine, and 10% fetal bovine serum. Cells were maintained at 37 °C in a humidified incubator in an atmosphere of 5% CO2 For the assay, the SH-SY5Y cells, at a density of 5 × 10^5 cell/mL, were seeded in a 96-well plate and incubated for 48 h.
For cytotoxicity evaluation, the cells were treated with potential coumarin derivatives in various concentrations for 24 h. After that, cell viability was determined by staining the cells with 3-(4, 5-dimethyl-2-thiazolyl)-2, 5-diphenyl-2H-tetrazolium bromide, and MTT (5 mg/mL in PBS) for 2 h. The optical density of each well was measured at 550 nm in a […] Accureader M965 microplate reader.

SH-SY5Y cells [4] = experiment: Neuroprotection against H2O2-induced cell damage (MTT); type: cell-based, Human; details: pre-incubation with 10 µM for 24 h, then 100 µM H2O2 for 2 h, compared to H2O2 treated group
Experimental: as §1
For neuroprotection against H2O2 investigation, the cells were pretreated with coumarin in various concentrations for 24 h. After removing unabsorbed test compounds by washing with phosphate buffer saline, the cells were treated with 100 µM H2O2 for 2 h to induce oxidative stress. Cell viability was determined by the MTT colorimetric method. The optical density of each well was measured at 550 nm. […] All data were expressed as a percentage of non-H2O2-treated groups (control group). The cell viability of the control group was expressed as 100%. The experiment was done in independent triplicates (4 wells/group).
The neuroprotective effect of phellopterin against oxidative stress was determined by colorimetric MTT assay in SH-SY5Y cells. Hydrogen peroxide at concentration 100 µM was used to induce oxidative damage. SH-SY5Y cells were pretreated with phellopterin at a concentration of 0.1 to 10 µM for 24 h prior to exposure to H2O2 for 2 h.

SH-SY5Y cells [5] = experiment: Neuroprotection against Aβ1–42 toxicity (MTT); type: cell-based, Human; details: 0.1 to 10 µM with 25 µM Aβ1–42 for 24 h, compared to Aβ1–42-induced group
Experimental: as §1
For neuroprotection against Aβ1–42 toxicity, the Aβ1–42 preparation was modified from. Briefly, lyophilized Aβ1–42 was reconstituted in sterile water and keep at −80 °C until further use. […] Cell viability was determined by the MTT colorimetric method. The optical density of each well was measured at 550 nm in a […] Accureader M965 microplate reader. […] All data were expressed as a percentage of non-Aβ1–42-treated groups (control group). Cell viability of the control group was expressed as 100%. […]
Aβ has been implicated in the pathogenesis of AD. […] Therefore, the neuroprotective effect against Aβ1–42 toxicity of phellopterin was also determined in SH-SY5Y cells. Aβ1–42 at concentration 25 µM was treated with cells in the presence or absence of phellopterin at a concentration 0.1 to 10 µM for 24 h, and then the cell viability was determined by MTT assay. […]

[6] = Ellman method, 0.2 Units/mL AChE, pH 7.4, mean ± SD, read-out: AChE assay IC50

Sequence of Aβ1–42 (P05067 672-713 limits assumed): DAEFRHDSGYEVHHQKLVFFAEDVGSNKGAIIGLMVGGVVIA
T2 sequence (O42275 24-633): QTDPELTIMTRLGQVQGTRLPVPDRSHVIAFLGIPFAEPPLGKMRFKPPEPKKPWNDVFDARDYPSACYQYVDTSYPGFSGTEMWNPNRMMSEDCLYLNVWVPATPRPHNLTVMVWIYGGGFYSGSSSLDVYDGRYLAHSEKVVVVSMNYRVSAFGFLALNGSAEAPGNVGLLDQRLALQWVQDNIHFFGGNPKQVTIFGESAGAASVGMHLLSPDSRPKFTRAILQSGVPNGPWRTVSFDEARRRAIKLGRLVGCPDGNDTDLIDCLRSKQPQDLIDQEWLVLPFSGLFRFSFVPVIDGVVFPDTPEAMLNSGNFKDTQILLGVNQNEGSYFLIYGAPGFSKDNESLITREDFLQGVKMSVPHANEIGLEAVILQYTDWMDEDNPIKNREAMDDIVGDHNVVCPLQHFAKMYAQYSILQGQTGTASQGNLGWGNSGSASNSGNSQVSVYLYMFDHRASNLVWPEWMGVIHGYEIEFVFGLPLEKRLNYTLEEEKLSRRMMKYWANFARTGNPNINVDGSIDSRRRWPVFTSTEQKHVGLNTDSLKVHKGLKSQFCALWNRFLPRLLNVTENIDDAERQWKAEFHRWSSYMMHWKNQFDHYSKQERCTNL
T1 sequence (O42275 24-633): as above

| Compound | IC50 [1] [µM] | IC50 [2, 6] [µM] | IC50 (Aβ1–42) [µM] | inhibitory effect on AChE-induced Aβ1–42 aggregation (in words) [1] | IC50 [2] [µM] | viability of SH-SY5Y cells (cytotoxicity) (SH-SY5Y cells [3]) | effect on H2O2-induced cell damage (cell viability) (SH-SY5Y cells [4]) | effect on Aβ1–42-induced cell damage (cell viability) (SH-SY5Y cells [5]) |
| --- | --- | --- | --- | --- | --- | --- | --- | --- |
| COc1cc(OC)c2ccc(=O)oc2c1OCC=C(C)C [Artanin, artanin] | 98 ± 19 | 51 ± 2 | 124 ± 10 | – | – | – | – | – |
| COc1cc2oc(=O)ccc2c(OC)c1O [Fraxinol, fraxinol] | > 500 | 18 ± 7 | 209 ± 21 | did not have inhibitory effects | – | – | – | – |
| COc1c2ccoc2c(OC)c2oc(=O)ccc12 [Isopimpinellin, isopimpinellin] | > 500 | – | 125 ± 13 | did not have inhibitory effects | 41 ± 1 | – | – | – |
| COc1c2ccoc2c(OCC=C(C)C)c2oc(=O)ccc12 [Phellopterin, phellopterin] | 97 ± 7 | 38 ± 3 | 95 ± 3 | – | – | no significant change | significantly attenuated the H2O2-induced cell damage | significantly increase cell viability |
| COC1=CC(=O)c2cc(C)cc(-c3c(OC)cc(OC)c4ccc(=O)oc34)c2C1=O [Toddacoumaquinone, toddacoumaquinone] | 72 ± 5 | 46 ± 12 | 145 ± 2 | – | – | – | – | – |
| COc1cc2oc(=O)ccc2c(OC)c1CC=C(C)C [Toddaculin, toddaculin] | 232 ± 10 | 53 ± 9 | 143 ± 4 | – | – | – | – | – |
| COc1cc(OC)c2ccc(=O)oc2c1/C=C/C(C)=O [Toddalenone, toddalenone] | 211 ± 29 | 40 ± 4 | 99 ± 1 | – | – | – | – | – |
| COc1cc2oc(=O)ccc2c(OC)c1C[C@@H](O)C(C)(C)O [Toddalolactone, toddalolactone] | 105 ± 9 | 49 ± 5 | 220 ± 1 | – | – | – | – | – |
| COc1cc2oc(=O)ccc2c(OC)c1CC(=O)C(C)C [Toddanone, toddanone] | 110 ± 2 | 46 ± 3 | 76 ± 1 | – | – | – | – | – |
